Laboratory results taken from ChEMBL document CHEMBL4229455, “Synthesis and anticancer activity of novel bisindolylhydroxymaleimide derivatives with potent GSK-3 kinase inhibition” (Bioorg Med Chem, 2018).

Legend:
Type in all cases: functional
[1] = system: CAKI-1; assay: Cytotoxicity against human Caki1 cells assessed as cell growth at 1 uM after 48 hrs by SRB assay relative to control; settings: CAKI-1, 48 h, read-out: Activity
[2] = system: LOX IMVI; assay: Cytotoxicity against human LOXIMVI cells assessed as cell growth at 1 uM after 48 hrs by SRB assay relative to control; settings: read-out: Activity
[3] = system: SF-268; assay: Cytotoxicity against human SF268 cells assessed as cell growth at 0.1 uM after 48 hrs by SRB assay relative to control; settings: SF-268, 48 h, read-out: Activity
[4] = system: SNB-19; assay: Cytotoxicity against human SNB19 cells after 48 hrs by SRB assay; settings: SNB-19, 48 h
[5] = system: PC-3; assay: Cytotoxicity against human PC3 cells assessed as cell growth at 1 uM after 48 hrs by SRB assay relative to control; settings: PC-3, 48 h, read-out: Activity
[6] = system: Malme-3M; assay: Cytotoxicity against human MALME-3M cells assessed as cell growth at 0.01 uM after 48 hrs by SRB assay relative to control; settings: read-out: Activity
[7] = system: RXF 393; assay: Cytotoxicity against human RXF393 cells after 48 hrs by SRB assay; settings: RXF 393, 48 h
[8] = system: HT-29; assay: Cytotoxicity against human HT-29 cells assessed as cell growth at 0.1 uM after 48 hrs by SRB assay relative to control; settings: HT-29, 48 h, read-out: Activity
[9] = system: NCI-H226; assay: Cytotoxicity against human NCI-H226 cells assessed as cell growth at 1 uM after 48 hrs by SRB assay relative to control; settings: NCI-H226, 48 h, read-out: Activity
[10] = system: Hs-578T; assay: Cytotoxicity against human Hs 578T cells after 48 hrs by SRB assay
[11] = system: UO-31; assay: Cytotoxicity against human UO31 cells after 48 hrs by SRB assay; settings: UO-31, 48 h
[12] = system: NCI-H23; assay: Cytotoxicity against human NCI-H23 cells assessed as cell growth at 0.01 uM after 48 hrs by SRB assay relative to control; settings: NCI-H23, 48 h, read-out: Activity
[13] = system: K562; assay: Cytotoxicity against human K562 cells assessed as cell growth at 0.1 uM after 48 hrs by SRB assay relative to control; settings: K562, 48 h, read-out: Activity
[14] = system: SW-620; assay: Cytotoxicity against human SW620 cells assessed as cell growth at 0.1 uM after 48 hrs by SRB assay relative to control; settings: SW-620, 48 h, read-out: Activity
[15] = system: A498; assay: Cytotoxicity against human A498 cells assessed as cell growth at 0.01 uM after 48 hrs by SRB assay relative to control; settings: A498, 48 h, read-out: Activity
[16] = system: UACC-257; assay: Cytotoxicity against human UACC257 cells after 48 hrs by SRB assay; settings: UACC-257, 48 h
[17] = system: HCC 2998; assay: Cytotoxicity against human HCC2998 cells assessed as cell growth at 0.1 uM after 48 hrs by SRB assay relative to control; settings: HCC 2998, 48 h, read-out: Activity
[18] = system: KM12; assay: Cytotoxicity against human KM12 cells assessed as cell growth at 0.01 uM after 48 hrs by SRB assay relative to control; settings: KM12, 48 h, read-out: Activity
[19] = system: K562; assay: Cytotoxicity against human K562 cells assessed as cell growth at 0.01 uM after 48 hrs by SRB assay relative to control; settings: K562, 48 h, read-out: Activity
[20] = system: IGROV-1; assay: Cytotoxicity against human IGROV1 cells after 48 hrs by SRB assay; settings: IGROV-1, 48 h
[21] = system: M14; assay: Cytotoxicity against human M14 cells assessed as cell growth at 0.1 uM after 48 hrs by SRB assay relative to control; settings: M14, 48 h, read-out: Activity
[22] = system: UO-31; assay: Cytotoxicity against human UO31 cells assessed as cell growth at 0.01 uM after 48 hrs by SRB assay relative to control; settings: UO-31, 48 h, read-out: Activity
[23] = system: OVCAR-5; assay: Cytotoxicity against human OVCAR5 cells assessed as cell growth at 0.01 uM after 48 hrs by SRB assay relative to control; settings: OVCAR-5, 48 h, read-out: Activity
[24] = system: SK-MEL-28; assay: Cytotoxicity against human SK-MEL-28 cells assessed as cell growth at 1 uM after 48 hrs by SRB assay relative to control; settings: SK-MEL-28, 48 h, read-out: Activity
[25] = system: KM12; assay: Cytotoxicity against human KM12 cells assessed as cell growth at 100 uM after 48 hrs by SRB assay relative to control; settings: KM12, 48 h, read-out: Activity
[26] = system: A549; assay: Cytotoxicity against human A549 cells assessed as cell growth at 1 uM after 48 hrs by SRB assay relative to control; settings: A549, 48 h, read-out: Activity
[27] = system: SK-MEL-28; assay: Cytotoxicity against human SK-MEL-28 cells assessed as cell growth at 100 uM after 48 hrs by SRB assay relative to control; settings: SK-MEL-28, 48 h, read-out: Activity
[28] = system: TK-10; assay: Cytotoxicity against human TK10 cells assessed as cell growth at 0.01 uM after 48 hrs by SRB assay relative to control; settings: TK-10, 48 h, read-out: Activity
[29] = system: MDA-MB-435; assay: Cytotoxicity against human MDA-MB-435 cells assessed as cell growth at 1 uM after 48 hrs by SRB assay relative to control; settings: MDA-MB-435, 48 h, read-out: Activity
[30] = system: SK-MEL-5; assay: Cytotoxicity against human SK-MEL-5 cells assessed as cell growth at 100 uM after 48 hrs by SRB assay relative to control; settings: SK-MEL-5, 48 h, read-out: Activity
[31] = system: HCC 2998; assay: Cytotoxicity against human HCC2998 cells assessed as cell growth at 1 uM after 48 hrs by SRB assay relative to control; settings: HCC 2998, 48 h, read-out: Activity
[32] = system: NCI/ADR-RES; assay: Cytotoxicity against human NCI-ADR-RES cells assessed as cell growth at 1 uM after 48 hrs by SRB assay relative to control; settings: read-out: Activity
[33] = system: HOP-92; assay: Cytotoxicity against human HOP92 cells assessed as cell growth at 0.1 uM after 48 hrs by SRB assay relative to control; settings: HOP-92, 48 h, read-out: Activity
[34] = system: M14; assay: Cytotoxicity against human M14 cells assessed as cell growth at 1 uM after 48 hrs by SRB assay relative to control; settings: M14, 48 h, read-out: Activity
[35] = system: DU-145; assay: Cytotoxicity against human DU145 cells after 48 hrs by SRB assay; settings: DU-145, 48 h
[36] = system: MOLT-4; assay: Cytotoxicity against human MOLT4 cells assessed as cell growth at 0.01 uM after 48 hrs by SRB assay relative to control; settings: MOLT-4, 48 h, read-out: Activity

Question: Which growth at 1 µM [1] does the source give for `N#CCCCCCn1cc(C2=C(c3cn(CCCCCC#N)c4ccccc34)C(=O)N(O)C2=O)c2ccccc21` here?
Answer: 93%

Question: What about the growth at 1 µM [2] of the same compound?
Answer: 71%

Question: And the growth at 0.1 µM [3]?
Answer: 95%

Question: What about the GI50 [4] of the same compound?
Answer: 4.36 µM

Question: And the LC50 [4]?
Answer: > 100 µM

Question: What about the TGI [4] of the same compound?
Answer: > 100 µM

Question: What about the growth at 1 µM [5] of the same compound?
Answer: 80%

Question: What about the growth at 0.01 µM [6] of the same compound?
Answer: 100%

Question: And the GI50 [7]?
Answer: 3.15 µM

Question: And the LC50 [7]?
Answer: > 100 µM

Question: What about the TGI [7] of the same compound?
Answer: 12.2 µM

Question: And the growth at 0.1 µM [8]?
Answer: 103%

Question: What about the growth at 1 µM [9] of the same compound?
Answer: 89%

Question: What about the GI50 [10] of the same compound?
Answer: 3.97 µM

Question: What about the LC50 (50% lethal concentration) [10] of the same compound?
Answer: > 100 µM

Question: What about the TGI [10] of the same compound?
Answer: > 100 µM

Question: And the GI50 [11]?
Answer: 1.76 µM

Question: And the LC50 [11]?
Answer: > 100 µM

Question: What about the TGI [11] of the same compound?
Answer: 90.1 µM

Question: And the growth at 0.01 µM [12]?
Answer: 95%

Question: And the growth at 0.1 µM [13]?
Answer: 91%

Question: And the growth at 0.1 µM [14]?
Answer: 97%

Question: What about the growth at 0.01 µM [15] of the same compound?
Answer: 84%

Question: And the GI50 [16]?
Answer: 12.1 µM

Question: What about the LC50 [16] of the same compound?
Answer: > 100 µM

Question: What about the TGI [16] of the same compound?
Answer: 55.6 µM

Question: What about the growth at 0.1 µM [17] of the same compound?
Answer: 101%

Question: What about the growth at 0.01 µM [18] of the same compound?
Answer: 97%

Question: What about the growth at 0.01 µM [19] of the same compound?
Answer: 85%

Question: And the GI50 [20]?
Answer: 5.08 µM

Question: And the LC50 (concentration killing 50% of cells) [20]?
Answer: > 100 µM

Question: What about the TGI [20] of the same compound?
Answer: 70.8 µM

Question: What about the growth at 0.1 µM [21] of the same compound?
Answer: 85%

Question: What about the growth at 0.01 µM [22] of the same compound?
Answer: 97%

Question: What about the growth at 0.01 µM [23] of the same compound?
Answer: 99%

Question: What about the growth at 1 µM [24] of the same compound?
Answer: 103%

Question: What about the growth at 100 µM [25] of the same compound?
Answer: -23%

Question: And the growth at 1 µM [26]?
Answer: 100%

Question: And the growth at 100 µM [27]?
Answer: 4%

Question: What about the growth at 0.01 µM [28] of the same compound?
Answer: 93%

Question: What about the growth at 1 µM [29] of the same compound?
Answer: 96%

Question: What about the growth at 100 µM [30] of the same compound?
Answer: -80%

Question: And the growth at 1 µM [31]?
Answer: 108%

Question: What about the growth at 1 µM [32] of the same compound?
Answer: 102%

Question: What about the growth at 0.1 µM [33] of the same compound?
Answer: 97%

Question: And the growth at 1 µM [34]?
Answer: 89%

Question: And the GI50 [35]?
Answer: 27.8 µM

Question: And the LC50 (50% lethal concentration) [35]?
Answer: > 100 µM

Question: And the TGI [35]?
Answer: > 100 µM

Question: What about the growth at 0.01 µM [36] of the same compound?
Answer: 87%

Question: Which results are given for `Cn1cc(C2=C(c3cn(C)c4ncccc34)C(=O)NC2=O)c2ccccc21`?
Answer: growth at 1 µM [1]: 54%; growth at 1 µM [2]: 74%; growth at 0.1 µM [3]: 102%; GI50 [4]: 6.31 µM; TGI [4]: 61.1 µM; growth at 1 µM [5]: 86%; growth at 0.01 µM [6]: 109%; GI50 [7]: 1.95 µM; TGI [7]: 5.32 µM; growth at 0.1 µM [8]: 107%; growth at 1 µM [9]: 86%; GI50 [10]: 0.847 µM; TGI [10]: 4.08 µM; GI50 [11]: 2.46 µM; TGI [11]: 25.3 µM; growth at 0.01 µM [12]: 100%; growth at 0.1 µM [13]: 102%; growth at 0.1 µM [14]: 96%; growth at 0.01 µM [15]: 76%; GI50 [16]: 6.32 µM; TGI [16]: 54.8 µM; growth at 0.1 µM [17]: 93%; growth at 0.01 µM [18]: 102%; growth at 0.01 µM [19]: 108%; GI50 [20]: 4.1 µM; TGI [20]: 27.5 µM; growth at 0.1 µM [21]: 108%; growth at 0.01 µM [22]: 90%; growth at 0.01 µM [23]: 98%; growth at 1 µM [24]: 90%; growth at 100 µM [25]: -86%; growth at 1 µM [26]: 84%; growth at 100 µM [27]: -24%; growth at 0.01 µM [28]: 100%; growth at 1 µM [29]: 40%; growth at 100 µM [30]: -94%; growth at 1 µM [31]: 85%; growth at 1 µM [32]: 91%; growth at 0.1 µM [33]: 83%; growth at 1 µM [34]: 110%; GI50 [35]: 6.24 µM; TGI [35]: 36.2 µM; growth at 0.01 µM [36]: 103%
